From ChEMBL document CHEMBL1201862, “PubChem BioAssay data set” (2004)
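Cultured in 96-well plates, cells were exposed to test compound for 48 hours across five concentrations. Here, GI50 denotes the concentration required for 50% inhibition of growth.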 The source made the active and inactive calls. Cut-off read from the data, not from the text of the source: active = GI50 up to about 1.1 µM and inactive = higher. Where a SMILES comes first, the peptide text is derived from it. [ ]: non-standard residue; d: D form. The star is where a group is joined. ξ: configuration not given here. ξPhe(4-NO2) = NC(Cc1ccc([N+](=O)[O-])cc1)C(=O)O; Boc = CC(C)(C)OC(=O)*

How the values were obtained:
Assay in all cases: NCI anticancer screen, dose series, 48 h
[1] = test system: SR
[2] = test system: MDA-N
[3] = test system: CCRF-CEM
[4] = test system: 786-0
[5] = test system: PC-3
[6] = test system: LOX IMVI
[7] = test system: UACC-257
[8] = test system: UO-31
[9] = test system: NCI/ADR-RES
[10] = test system: ACHN
[11] = test system: SF-539
[12] = test system: MDA-MB-435
[13] = test system: SK-MEL-5
[14] = test system: COLO 205
[15] = test system: M14
[16] = test system: K562
[17] = test system: RPMI-8226
[18] = test system: UACC-62
[19] = test system: OVCAR-5
[20] = test system: SNB-19
[21] = test system: SK-MEL-28
[22] = test system: Hs-578T
[23] = test system: SNB-75
[24] = test system: SF-295
[25] = test system: A498
[26] = test system: HOP-62
[27] = test system: SW-620
[28] = test system: NCI-H522
[29] = test system: MOLT-4
[30] = test system: HCT-116
[31] = test system: OVCAR-8
[32] = test system: HOP-92
[33] = test system: T47D
[34] = test system: A549
[35] = test system: CAKI-1
[36] = test system: U-251
[37] = test system: TK-10
[38] = test system: NCI-H460
[39] = test system: SK-OV-3
[40] = test system: RXF 393
[41] = test system: MCF7
[42] = test system: HCT-15
[43] = test system: EKVX
[44] = test system: HT-29
[45] = test system: HCC 2998
[46] = test system: SF-268
[47] = test system: HL-60
[48] = test system: Malme-3M
[49] = test system: DU-145
[50] = test system: BT-549
[51] = test system: MDA-MB-231
[52] = test system: IGROV-1
[53] = test system: KM12
[54] = test system: SK-MEL-2
[55] = test system: NCI-H23
[56] = test system: OVCAR-3
[57] = test system: NCI-H226
[58] = test system: OVCAR-4
[59] = test system: SN12C

`CCOC(=O)c1ccc(NC(NC(=O)CC)(C(F)(F)F)C(F)(F)F)cc1` was tested, and the GI50 [1] was 14.1 µM (inactive), the GI50 [2] was > 100 µM (inactive) and the GI50 [3] was > 100 µM (inactive). For the same molecule, the GI50 [4] was > 100 µM (inactive), the GI50 [5] was 60.3 µM (inactive) and the GI50 [6] was 96.2 µM (inactive). The GI50 [7] was > 100 µM (inactive), the GI50 [8] was 36.2 µM (inactive) and the GI50 [9] was > 100 µM (inactive). For the same molecule, the GI50 [10] was 55 µM (inactive), the GI50 [11] was > 100 µM (inactive) and the GI50 [12] was > 100 µM (inactive). For the same molecule, the GI50 [13] was > 100 µM (inactive), the GI50 [14] was > 100 µM (inactive) and the GI50 [15] was > 100 µM (inactive). The GI50 [16] was 39.3 µM (inactive), the GI50 [17] was > 100 µM (inactive) and the GI50 [18] was 34.4 µM (inactive). The GI50 [19] was > 100 µM (inactive), the GI50 [20] was > 100 µM (inactive) and the GI50 [21] was > 100 µM (inactive). For the same molecule, the GI50 [22] was > 100 µM (inactive), the GI50 [23] was > 100 µM (inactive) and the GI50 [24] was > 100 µM (inactive). For the same molecule, the GI50 [25] was > 100 µM (inactive), the GI50 [26] was > 100 µM (inactive) and the GI50 [27] was > 100 µM (inactive). For the same molecule, the GI50 [28] was > 100 µM (inactive), the GI50 [29] was 55.5 µM (inactive) and the GI50 [30] was > 100 µM (inactive). The GI50 [31] was > 100 µM (inactive), the GI50 [32] was > 100 µM (inactive) and the GI50 [33] was > 100 µM (inactive). The GI50 [34] was > 100 µM (inactive), the GI50 [35] was > 100 µM (inactive) and the GI50 [36] was > 100 µM (inactive). The GI50 [37] was > 100 µM (inactive), the GI50 [38] was > 100 µM (inactive) and the GI50 [39] was > 100 µM (inactive). For the same molecule, the GI50 [40] was > 100 µM (inactive), the GI50 [41] was > 100 µM (inactive) and the GI50 [42] was 97.1 µM. The GI50 [43] was > 100 µM (inactive), the GI50 [44] was > 100 µM (inactive) and the GI50 [45] was > 100 µM (inactive). The GI50 [46] was > 100 µM (inactive), the GI50 [47] was > 100 µM (inactive) and the GI50 [48] was > 100 µM (inactive). The GI50 [49] was > 100 µM (inactive), the GI50 [50] was > 100 µM (inactive) and the GI50 [51] was > 100 µM (inactive). The GI50 [52] was > 100 µM (inactive), the GI50 [53] was 59.6 µM (inactive) and the GI50 [54] was > 100 µM (inactive). For the same molecule, the GI50 [55] was > 100 µM (inactive), the GI50 [56] was > 100 µM (inactive) and the GI50 [57] was > 100 µM (inactive).

For `COc1ccccc1N1CCN(CCCCNC(=O)c2ccc([N+](=O)[O-])o2)CC1`, the GI50 [1] was 5.61 µM (inactive), the GI50 [2] was 3.18 µM (inactive) and the GI50 [3] was 21.1 µM (inactive). For the same molecule, the GI50 [4] was 6.82 µM (inactive), the GI50 [5] was 13.6 µM (inactive) and the GI50 [6] was 1.12 µM (active). For the same molecule, the GI50 [7] was 4.1 µM (inactive), the GI50 [8] was 10.4 µM (inactive) and the GI50 [9] was 20 µM (inactive). For the same molecule, the GI50 [10] was 11.7 µM (inactive), the GI50 [11] was 6.1 µM (inactive) and the GI50 [12] was 3.36 µM (inactive). For the same molecule, the GI50 [13] was 6.75 µM (inactive), the GI50 [14] was 2.38 µM (inactive) and the GI50 [15] was 4.05 µM (inactive). For the same molecule, the GI50 [16] was 12.4 µM (inactive), the GI50 [17] was 19.1 µM (inactive) and the GI50 [18] was 5.93 µM (inactive). The GI50 [19] was 15.1 µM (inactive), the GI50 [20] was 11.8 µM (inactive) and the GI50 [21] was 25.1 µM (inactive). The GI50 [22] was 15.5 µM (inactive), the GI50 [24] was 11.6 µM (inactive) and the GI50 [25] was 9.79 µM (inactive). For the same molecule, the GI50 [26] was 5.18 µM (inactive), the GI50 [27] was 8.22 µM (inactive) and the GI50 [28] was 2.69 µM (inactive). For the same molecule, the GI50 [29] was 23.1 µM (inactive), the GI50 [30] was 10.3 µM (inactive) and the GI50 [31] was 10.6 µM (inactive). For the same molecule, the GI50 [32] was 16.6 µM (inactive), the GI50 [33] was 14.3 µM (inactive) and the GI50 [34] was 6.98 µM (inactive). For the same molecule, the GI50 [35] was 13.4 µM (inactive), the GI50 [36] was 7.55 µM (inactive) and the GI50 [58] was 12.5 µM (inactive). The GI50 [37] was 5.9 µM (inactive), the GI50 [38] was 3.43 µM (inactive) and the GI50 [39] was 15.9 µM (inactive). For the same molecule, the GI50 [40] was 8.57 µM (inactive), the GI50 [41] was 4.75 µM (inactive) and the GI50 [42] was 3.48 µM. The GI50 [43] was 16 µM (inactive), the GI50 [44] was 2.74 µM (inactive) and the GI50 [45] was 2.42 µM (inactive). For the same molecule, the GI50 [46] was 16.7 µM (inactive), the GI50 [47] was 5.86 µM (inactive) and the GI50 [48] was 2.81 µM (inactive). For the same molecule, the GI50 [59] was 3.27 µM (inactive), the GI50 [49] was 4.76 µM (inactive) and the GI50 [50] was 4.19 µM (inactive). For the same molecule, the GI50 [51] was 23.6 µM (inactive), the GI50 [52] was 13.7 µM (inactive) and the GI50 [53] was 5.53 µM (inactive). The GI50 [54] was 4.97 µM (inactive), the GI50 [55] was 5.79 µM (inactive) and the GI50 [56] was 4.52 µM (inactive). The GI50 [57] was 11.7 µM (inactive).

For `CCNC(=O)CNC(=O)C(Cc1ccc([N+](=O)[O-])cc1)NC(=O)OC(C)(C)C` (stereo unspecified) (Boc-[ξPhe(4-NO2)]-Gly-NHEt), the GI50 [1] was > 100 µM (inactive), the GI50 [2] was > 100 µM (inactive) and the GI50 [3] was > 100 µM (inactive). For the same molecule, the GI50 [4] was > 100 µM (inactive), the GI50 [5] was > 100 µM (inactive) and the GI50 [6] was > 100 µM (inactive). For the same molecule, the GI50 [8] was > 100 µM (inactive), the GI50 [9] was > 100 µM (inactive) and the GI50 [10] was > 100 µM (inactive). The GI50 [12] was > 100 µM (inactive), the GI50 [13] was > 100 µM (inactive) and the GI50 [14] was > 100 µM (inactive). The GI50 [15] was > 100 µM (inactive), the GI50 [16] was > 100 µM (inactive) and the GI50 [17] was > 100 µM (inactive). For the same molecule, the GI50 [18] was > 100 µM (inactive), the GI50 [19] was > 100 µM (inactive) and the GI50 [20] was > 100 µM (inactive). For the same molecule, the GI50 [21] was > 100 µM (inactive), the GI50 [22] was > 100 µM (inactive) and the GI50 [23] was > 100 µM (inactive). The GI50 [24] was > 100 µM (inactive), the GI50 [25] was 53.6 µM (inactive) and the GI50 [26] was > 100 µM (inactive). For the same molecule, the GI50 [27] was > 100 µM (inactive), the GI50 [28] was > 100 µM (inactive) and the GI50 [29] was > 100 µM (inactive). For the same molecule, the GI50 [30] was > 100 µM (inactive), the GI50 [31] was > 100 µM (inactive) and the GI50 [32] was > 100 µM (inactive). The GI50 [33] was > 10 µM (inactive), the GI50 [34] was > 100 µM (inactive) and the GI50 [35] was > 100 µM (inactive). The GI50 [36] was > 100 µM (inactive), the GI50 [58] was > 100 µM (inactive) and the GI50 [37] was > 100 µM (inactive). The GI50 [38] was > 100 µM (inactive), the GI50 [39] was > 100 µM (inactive) and the GI50 [40] was > 100 µM (inactive). The GI50 [41] was > 100 µM (inactive), the GI50 [42] was over 100 µM and the GI50 [43] was > 100 µM (inactive). For the same molecule, the GI50 [44] was > 100 µM (inactive), the GI50 [45] was > 100 µM (inactive) and the GI50 [46] was > 100 µM (inactive). The GI50 [47] was > 100 µM (inactive), the GI50 [48] was > 100 µM (inactive) and the GI50 [59] was > 100 µM (inactive). The GI50 [49] was > 100 µM (inactive), the GI50 [50] was > 100 µM (inactive) and the GI50 [51] was > 100 µM (inactive). The GI50 [52] was > 100 µM (inactive), the GI50 [53] was > 100 µM (inactive) and the GI50 [55] was > 100 µM (inactive). For the same molecule, the GI50 [56] was > 100 µM (inactive) and the GI50 [57] was > 100 µM (inactive).
